{
  "source": "patent US8552035B2",
  "about": "“Phenanthrenone compounds, compositions and methods” (Pfizer Inc., priority 2008, dated 2013)",
  "key": {"LPS-induced TNFα": {"tested_on": "LPS-induced TNFα", "test": "28-day mouse side-effect model, LPS-induced serum TNFα suppression", "type": "in vivo", "details": "oral gavage 28 days, LPS challenge", "description": "(§1) 10-12 week old female Swiss Webster mice (Taconic, Germantown, N.Y., U.S.A.) weighing 27-29 grams are used in accordance with the guidelines of the Institutional Animal Care and Use Committee and in accordance with NIH guidelines on laboratory animal welfare. Mice are acclimated to the Pfizer animal facility for 3-7 days prior to being placed on study. Prednisolone and DAGR compounds are administered by oral gavage for a total of 28 days. Each treatment group generally contains 8-10 mice. To establish a dosing regimen for the studies, a pilot pharmacodynamic time course experiment is conducted to quantify TNFa repression after a single ED80 dose (determined from the acute LPS endotoxemia mouse model). […] DAGR compounds vary in their required frequency of doses.\nBody weights are measured on the first and last day of each experiment. Blood samples are obtained after ˜3 weeks of dosing for steady-state pharmacokinetic analysis. To assess compound effects on LPS-induced TNF-a, all mice receive an intraperitoneal injection of LPS (Salmonella Typhosa, Sigma, St. Louis, L-7895) 2.5 hr after the last dose on day 28. Mice are sacrificed 90 min. after LPS administration. Serum samples are assayed for osteocalcin and TNFa using the Linco multiplex assay (St. Charles, Mo.) and Luminex 100 (Austin, Tex.). Samples are diluted 1:20 and the assay is run according to manufacturer's instructions. An osteocalcin standard is purchased separately from Biomedical Technologies Incorporated (Stoughton, Mass.). Serum insulin is measured to assess compound effects on insulin resistance. Insulin was measured using the UltraSensitive Mouse EIA kit from Alpco Diagnostics (Salem, N.H.) following the manufacturer's protocol.\n(§2) ED50 and ED80 values are obtained for the various parameters using four-parameter logistic fits of data. For each experiment/dose group, outliers are detected by calculating the number of standard deviations each mouse's value was from the mean of their group and then dividing by the standard deviation of the group. The means and standard deviations used in this calculation omitted the value being examined so that, if it were an outlier, it would have no influence. If the value being examined is more than 2.5 standard deviations from the mean, it was not used in the rest of the calculations.\n(§3) Percent inhibition values are then calculated for each animal using the means of the vehicle and 10 mpk prednisone control groups. The individual mouse percent inhibition values are then fit to a four-parameter logistic model using the area under curve mean for each group. Since all four parameters are estimated and the lower plateau is not fixed at 0% and the upper plateau was not fixed at 100%, the ED50 and ED80 values are calculated by using an inverse calibration formula for a response equal to 50% or 80%. The designation “nd” means not determined."}, "bone formation rate": {"tested_on": "bone formation rate", "test": "28-day mouse side-effect model, cortical bone histomorphometry (bone formation rate)", "type": "in vivo", "details": "oral gavage 28 days, tibia cortical bone formation rate", "description": "as §1\nDuring the in-life portion of each study, mice received two IP injections of the fluorochrome calcein (C-0875; Sigma-Aldrich; 20 mg/kg; 200 μL/mouse), dissolved in 2% sodium bicarbonate, on days 1 and 26 for bone histomorphometry measurements. Fluorochrome labels incorporate into the bone mineral and allow measurement of bone formation rate. During the tissue harvest, the left tibia is excised and cleaned for cortical histomorphometry measurements. After all skin and muscle are removed, tibiae are placed in 70% ethanol (4° C.) in the dark for a minimum of 24 hours.\nGround transverse sections are used for histomorphometric analysis of cortical bone^1. Bones are sectioned using a low speed saw (Isomet, Buehler, Lake Bluff, Ill.) equipped with a diamond wafer blade. The end of each tibia is removed proximal to tibia-fibula synostosis and a […] cross-section is cut. Using a roughened glass plate and a cork, sections are ground to […] until transparent and all labels distinguishable under a fluorescent microscope. Sections are dehydrated using the following solutions for a minimum of 2 minutes each: 1) 70% ethanol, 2) 95% ethanol, 3) 100% ethanol, 4) 50/50 ethanol/xylene, and 5) xylene (twice) (Sigma, St. Louis, 534056). Sections are mounted using Eukitt Quick Mounting Medium (Sigma, St. Louis, 03989) and cover-slipped. Using the Osteomeasure Bone Analysis Program (Decatur, Ga.), bone formation rate is calculated by tracing the 1st and 2nd fluorescent labels in addition to tracing the inner and outer perimeter of the bone. Bone formation rate is calculated by the following equation: (Interlabel Width/Label Interval)*(Labeled Perimeter/Bone Perimeter). At least 5 samples are measured from each treatment group in each study.\nas §2, §3"}},
  "data": [
    {"smiles": "Cc1ncccc1NC(=O)c1ccc2c(c1)C(=O)C[C@@H]1C[C@@](O)(c3ccccc3)[C@](C)(O)C[C@@]21Cc1ccccc1", "note": "[Example 1, (4bR,6R,7R,8aS)-4b-benzyl-6,7-dihydroxy-6-methyl-N-(2-methylpyridin-3-yl)-10-oxo-7-phenyl-4b,5,6,7,8,8a,9,10-octahydrophenanthrene-2-carboxamide]", "values": [
      {"measurement": "ED50", "setting": "LPS-induced TNFα; 672 h, read-out: TNFα Suppression (ED50 dose)", "value": 0.029, "unit": "mg/kg"},
      {"measurement": "TNFα Suppression (ED80 dose)", "setting": "LPS-induced TNFα", "value": 0.11},
      {"measurement": "ED50 at 28 days", "setting": "bone formation rate; female, Swiss Webster, read-out: BFR (ED50 dose)", "value": 0.12, "unit": "mg/kg"},
      {"measurement": "BFR (ED80 dose)", "setting": "bone formation rate", "value": 0.87}
    ]}
  ]
}
